Values joined by “and” are separate entries in the source; they are usually repeats but may differ in a detail not shown here. Identical values can stand only once. Toxic doses and inconclusive results are not listed. No stated cut-off is given here; in the data, active means T/C of 150% or more; inactive means T/C below 125%.
System: L1210 leukemia ip in BDF1 mice, survival T/C
Assay: NCI In Vivo Anticancer Drug Screen. Data for tumor model L1210 Leukemia (intraperitoneal) in B6D2F1 (BDF1) mice
Details: endpoint: mean survival time, higher = longer survival
Summary of the method: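 Survival endpoint. Drug-treated group vs vehicle group, expressed as T divided by C. Tumor passaged by transplantation.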

[1] = dose: 100.0 mg/kg/injection, schedule: Q01DX001 (ip), vehicle: saline
[2] = dose: 200.0 mg/kg/injection, schedule: Q01DX001 (ip), vehicle: saline
[3] = dose: 400.0 mg/kg/injection, schedule: Q01DX001 (ip), vehicle: saline
[4] = dose: 100.0 mg/kg/injection, schedule: Q01DX009 (ip), vehicle: Klucel (hydroxypropylcellulose) (HPC)
[5] = dose: 25.0 mg/kg/injection, schedule: Q01DX009 (ip), vehicle: Klucel (hydroxypropylcellulose) (HPC)
[6] = dose: 100.0 mg/kg/injection, schedule: Q01DX009 (ip), vehicle: saline with Tween-80
[7] = dose: 100.0 mg/kg/injection, schedule: Q04DX003 (ip), vehicle: Klucel (hydroxypropylcellulose) (HPC)
[8] = dose: 200.0 mg/kg/injection, schedule: Q01DX009 (ip), vehicle: saline with Tween-80

Measured: T/C

CN=C(NCCCN1CCOCC1)c1ccc(NC(=O)c2ccc(C(=O)Nc3ccc(C(=NC)NCCCN4CCOCC4)cc3)cc2)cc1
inactive: dose: 12.5 mg/kg/injection, schedule: Q01DX Z (ip), vehicle: water 103 % of control | dose: 25.0 mg/kg/injection, schedule: Q01DX Z (ip), vehicle: water 113 % of control

CC(C)OP1(=O)OCC(C)O1 (stereo not given)
inactive: [1] 102 % of control | [2] 98 % of control | [3] 102 % of control

CC(O)(C(N)=O)c1cc(Cl)ccc1Cl (stereo not given)
inactive: dose: 100.0 mg/kg/injection, schedule: Q01DX009 (ip), vehicle: water 94 % of control | dose: 100.0 mg/kg/injection, schedule: Q04DX003 (ip), vehicle: water 90 % of control | dose: 200.0 mg/kg/injection, schedule: Q01DX009 (ip), vehicle: water 96 % of control | dose: 200.0 mg/kg/injection, schedule: Q04DX003 (ip), vehicle: water 95 % of control | dose: 400.0 mg/kg/injection, schedule: Q01DX009 (ip), vehicle: water 107 % of control | dose: 400.0 mg/kg/injection, schedule: Q04DX003 (ip), vehicle: water 96 % of control

CCCCNc1ccc(C(=O)OCCNC2CCCCC2)cc1
inactive: dose: 75.0 mg/kg/injection, schedule: Q01DX001 (ip), vehicle: saline 100 % of control | dose: 150.0 mg/kg/injection, schedule: Q01DX001 (ip), vehicle: saline 96 % of control

CC(C)OP(=O)(NO)OC(C)C
inactive: [1] 97 % of control | [2] 92 % of control | [3] 90 % of control

O=C1c2ccccc2C(=O)c2c1ccc1nc(Cl)c(=O)[nH]c21
inactive: dose: 100.0 mg/kg/injection, schedule: Q01DX001 (ip), vehicle: carboxymethylcellulose (CMC) 93 % of control | dose: 200.0 mg/kg/injection, schedule: Q01DX001 (ip), vehicle: carboxymethylcellulose (CMC) 95 % of control | dose: 400.0 mg/kg/injection, schedule: Q01DX001 (ip), vehicle: carboxymethylcellulose (CMC) 100 % of control

COc1cc(/C=N/NC(=O)c2ccccc2OC)ccc1O
inactive: [4] 97 % of control | dose: 200.0 mg/kg/injection, schedule: Q01DX009 (ip), vehicle: Klucel (hydroxypropylcellulose) (HPC) 98 % of control | dose: 400.0 mg/kg/injection, schedule: Q01DX009 (ip), vehicle: Klucel (hydroxypropylcellulose) (HPC) 94 % of control

COC(=O)C(Br)C(=O)OC
inactive: dose: 12.5 mg/kg/injection, schedule: Q04DX002 (ip), vehicle: saline with Tween-80 97 % of control | dose: 25.0 mg/kg/injection, schedule: Q04DX002 (ip), vehicle: saline with Tween-80 97 % of control

COC(=O)c1ccccc1NC(=O)c1ccccc1C(=O)O
inactive: [5] 100 % of control | dose: 50.0 mg/kg/injection, schedule: Q01DX009 (ip), vehicle: Klucel (hydroxypropylcellulose) (HPC) 103 % of control | [4] 93 % of control and 102 % of control | dose: 100.0 mg/kg/injection, schedule: Q04DX002 (ip), vehicle: Klucel (hydroxypropylcellulose) (HPC) 98 % of control | dose: 150.0 mg/kg/injection, schedule: Q01DX009 (ip), vehicle: Klucel (hydroxypropylcellulose) (HPC) 100 % of control | dose: 225.0 mg/kg/injection, schedule: Q01DX009 (ip), vehicle: Klucel (hydroxypropylcellulose) (HPC) 97 % of control | dose: 335.0 mg/kg/injection, schedule: Q01DX009 (ip), vehicle: Klucel (hydroxypropylcellulose) (HPC) 102 % of control

COc1cc2c(c(OC)c1OC)-c1ccc(O)c(=O)cc1[C@@H](NC(C)=O)CC2
inactive: dose: 75.0 mg/kg/injection, schedule: Q01DX001 (ip), vehicle: other 90 % of control | dose: 150.0 mg/kg/injection, schedule: Q01DX001 (ip), vehicle: other 119 % of control

O=C(Nc1ccccc1NC(=O)C(Cl)(Cl)Cl)C(Cl)(Cl)Cl
inactive: dose: 87.5 mg/kg/injection, schedule: Q01DX009 (ip), vehicle: carboxymethylcellulose (CMC) 88 % of control | dose: 175.0 mg/kg/injection, schedule: Q01DX009 (ip), vehicle: carboxymethylcellulose (CMC) 93 % of control | dose: 350.0 mg/kg/injection, schedule: Q01DX009 (ip), vehicle: carboxymethylcellulose (CMC) 96 % of control

CC(CC(=O)N1CCCCC1)CC(=O)N1CCCCC1
inactive: [1] 94 % of control | [2] 104 % of control

CC(=O)OC1=CCC(C(C)(C)C)CC1 (stereo not given)
inactive: dose: 12.5 mg/kg/injection, schedule: Q01DX009 (ip), vehicle: Klucel (hydroxypropylcellulose) (HPC) 107 % of control | dose: 12.5 mg/kg/injection, schedule: Q04DX003 (ip), vehicle: Klucel (hydroxypropylcellulose) (HPC) 96 % of control | [5] 93 % of control | dose: 25.0 mg/kg/injection, schedule: Q04DX003 (ip), vehicle: Klucel (hydroxypropylcellulose) (HPC) 102 % of control | dose: 50.0 mg/kg/injection, schedule: Q04DX003 (ip), vehicle: Klucel (hydroxypropylcellulose) (HPC) 106 % of control

CCOC(=O)c1cc(CC)sc1N
inactive: [6] 96 % of control | [7] 91 % of control | [8] 86 % of control | dose: 200.0 mg/kg/injection, schedule: Q04DX003 (ip), vehicle: Klucel (hydroxypropylcellulose) (HPC) 97 % of control | dose: 400.0 mg/kg/injection, schedule: Q01DX009 (ip), vehicle: saline with Tween-80 90 % of control | dose: 400.0 mg/kg/injection, schedule: Q04DX003 (ip), vehicle: Klucel (hydroxypropylcellulose) (HPC) 96 % of control

C=C(C)COc1c(Cl)cc(Cl)cc1C=Nc1ccccc1
inactive: dose: 50.0 mg/kg/injection, schedule: Q01DX009 (ip), vehicle: saline with Tween-80 101 % of control | dose: 100.0 mg/kg/injection, schedule: Q01DX001 (ip), vehicle: saline with Tween-80 94 % of control | [6] 90 % of control | dose: 200.0 mg/kg/injection, schedule: Q01DX001 (ip), vehicle: saline with Tween-80 89 % of control | [8] 104 % of control

CC(N)C(=O)NC(CC(=O)O)C(=O)O (stereo not given)
inactive: dose: 25.0 mg/kg/injection, schedule: Q04DX002 (ip), vehicle: saline 98 % of control | dose: 50.0 mg/kg/injection, schedule: Q04DX002 (ip), vehicle: saline 94 % of control | dose: 100.0 mg/kg/injection, schedule: Q04DX002 (ip), vehicle: saline 94 % of control

CCC(CC)C(O)CC(O)CC(C)C (stereo not given)
inactive: dose: 25.0 mg/kg/injection, schedule: Q04DX003 (ip), vehicle: other 100 % of control | dose: 50.0 mg/kg/injection, schedule: Q04DX003 (ip), vehicle: other 106 % of control | dose: 100.0 mg/kg/injection, schedule: Q04DX003 (ip), vehicle: other 101 % of control

Cc1cc(=O)[nH]c2oc(-c3ccccc3)cc(=O)c12
inactive: [1] 101 % of control | [2] 103 % of control | [3] 100 % of control

O=[N+]([O-])c1ccc(S(=O)(=O)OCc2ccccc2OS(=O)(=O)c2ccc([N+](=O)[O-])cc2)cc1
inactive: dose: 25.0 mg/kg/injection, schedule: Q01DX009 (ip), vehicle: saline sonified 103 % of control | dose: 50.0 mg/kg/injection, schedule: Q01DX009 (ip), vehicle: saline sonified 95 % of control | dose: 100.0 mg/kg/injection, schedule: Q01DX009 (ip), vehicle: saline sonified 100 % of control | [7] 91 % of control

O=[N+]([O-])/C=C/c1ccccc1Br
inactive: dose: 18.75 mg/kg/injection, schedule: Q04DX003 (ip), vehicle: Klucel (hydroxypropylcellulose) (HPC) 96 % of control | dose: 37.5 mg/kg/injection, schedule: Q04DX003 (ip), vehicle: Klucel (hydroxypropylcellulose) (HPC) 102 % of control | dose: 75.0 mg/kg/injection, schedule: Q04DX003 (ip), vehicle: Klucel (hydroxypropylcellulose) (HPC) 104 % of control

Reference: PubChem BioAssay AID248 (DTP/NCI, 2004)
